# Data from PMC6339850 (ACS chemical neuroscience, 2018).
# Assays:
# mouse MC4R [1] = target: T1, mouse MC4R (Mus musculus, UniProt P56450); assay: cAMP AlphaScreen antagonist assay; conditions: highest assayed concentrations
# mouse MC1R [2] = target: T2, mouse MC1R (Mus musculus, UniProt Q01727); assay: cell-based
# mouse MC5R [3] = target: T3, mouse MC5R (Mus musculus, UniProt P41149); conditions: for mMC5R inverse agonist, percent change from basal at 100 μM / mMC5R percent maximal stimulatory response at 100 μM: 100000.0; for MC5R activity in words: up to 100 μM
# mouse MC4R [4] = target: T1, mouse MC4R; assay: cAMP AlphaScreen agonist assay, HEK293 cells stably expressing mouse MC4R; conditions: agonist (up to 100 μM) and antagonist activity at the concentrations assayed
# mouse MC1R [5] = target: T2, mouse MC1R; conditions: for mMC1R percent maximal stimulatory response at 100 μM: 100000.0
# mouse MC3R [6] = target: T4, mouse MC3R (Mus musculus, UniProt P33033); conditions: for MC3R activity in words: agonist (up to 100 μM) and antagonist activity at the concentrations assayed; for mMC3R percent maximal stimulatory response at 100 μM: 100000.0
# mouse MC3R [7] = target: T4, mouse MC3R; assay: cAMP AlphaScreen antagonist assay
# mouse MC5R [8] = target: T3, mouse MC5R; assay: cell-based
# mouse MC3R [9] = target: T4, mouse MC3R; assay: cell-based
# T1 sequence (P56450 whole entry): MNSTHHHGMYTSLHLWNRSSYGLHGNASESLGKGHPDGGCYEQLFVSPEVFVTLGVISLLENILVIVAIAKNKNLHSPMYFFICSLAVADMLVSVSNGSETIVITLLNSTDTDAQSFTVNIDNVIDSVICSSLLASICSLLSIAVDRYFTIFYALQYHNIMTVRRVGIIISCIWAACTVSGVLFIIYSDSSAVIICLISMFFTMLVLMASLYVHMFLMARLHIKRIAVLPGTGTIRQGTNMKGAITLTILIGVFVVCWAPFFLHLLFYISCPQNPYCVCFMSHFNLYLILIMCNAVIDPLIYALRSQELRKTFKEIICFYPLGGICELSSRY
# T3 sequence (P41149 whole entry): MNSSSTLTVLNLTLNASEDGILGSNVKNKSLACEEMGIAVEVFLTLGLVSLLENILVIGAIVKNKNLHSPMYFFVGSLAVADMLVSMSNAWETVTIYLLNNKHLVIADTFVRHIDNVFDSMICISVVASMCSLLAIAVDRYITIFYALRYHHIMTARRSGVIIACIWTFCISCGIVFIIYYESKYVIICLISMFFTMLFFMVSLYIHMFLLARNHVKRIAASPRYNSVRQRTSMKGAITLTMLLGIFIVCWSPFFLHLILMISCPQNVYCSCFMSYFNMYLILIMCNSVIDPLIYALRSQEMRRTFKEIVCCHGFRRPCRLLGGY
# T2 sequence (Q01727 whole entry): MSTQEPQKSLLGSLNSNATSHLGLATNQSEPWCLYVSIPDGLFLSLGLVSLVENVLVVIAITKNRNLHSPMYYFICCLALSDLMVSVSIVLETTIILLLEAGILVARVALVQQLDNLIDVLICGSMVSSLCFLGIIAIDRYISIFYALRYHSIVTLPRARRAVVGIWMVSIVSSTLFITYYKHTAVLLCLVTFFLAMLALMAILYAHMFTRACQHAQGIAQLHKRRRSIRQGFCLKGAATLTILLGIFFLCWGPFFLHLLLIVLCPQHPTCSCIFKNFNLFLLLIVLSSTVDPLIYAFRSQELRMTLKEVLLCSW
# T4 sequence (P33033 whole entry): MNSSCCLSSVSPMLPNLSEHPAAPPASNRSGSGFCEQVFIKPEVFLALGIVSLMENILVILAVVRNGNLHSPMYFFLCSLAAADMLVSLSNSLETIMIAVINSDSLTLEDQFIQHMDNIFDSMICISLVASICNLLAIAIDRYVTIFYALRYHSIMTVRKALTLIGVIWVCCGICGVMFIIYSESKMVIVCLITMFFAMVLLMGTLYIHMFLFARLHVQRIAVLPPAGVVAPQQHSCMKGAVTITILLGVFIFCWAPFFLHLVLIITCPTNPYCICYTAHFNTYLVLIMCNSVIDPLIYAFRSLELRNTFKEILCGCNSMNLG
Structure (SMILES),MC4R antagonist activity in words (mouse MC4R [1]),EC50 (mouse MC1R [2]) [µM],MC5R activity in words (mouse MC5R [3]),MC3R activity in words (mouse MC3R [6]),Kb (mouse MC3R [7]) [µM],also measured
"C[C@@H]1NC(=O)[C@H](CC(N)=O)NC(=O)[C@H](Cc2ccccc2)NC(=O)[C@H](Cc2ccccc2)NC(=O)[C@@H](CCCNC(=N)N)NC(=O)[C@@H]2CCCN2C(=O)[C@H]2CCCN2C(=O)[C@H](Cc2ccccc2)NC1=O [Peptide 3, c[Pro-DArg-Phe-Phe-Asn-Ala-Phe-DPro]]",did not possess antagonist activity,–,–,–,–,–
"C[C@@H]1NC(=O)[C@H](CC(N)=O)NC(=O)[C@H](Cc2ccccc2)NC(=O)[C@@H](Cc2ccccc2)NC(=O)[C@H](CCCNC(=N)N)NC(=O)[C@@H]2CCCN2C(=O)[C@H]2CCCN2C(=O)[C@H](Cc2ccccc2)NC1=O [Peptide 4, c[Pro-Arg-DPhe-Phe-Asn-Ala-Phe-DPro]]",–,0.7,apparent inverse agonist activity,–,–,"mMC5R inverse agonist, percent change from basal at 100 μM (mouse MC5R [3]): 25%"
"C[C@@H]1NC(=O)[C@H](CC(N)=O)NC(=O)[C@@H](Cc2ccccc2)NC(=O)[C@H](Cc2ccccc2)NC(=O)[C@H](CCCNC(=N)N)NC(=O)[C@@H]2CCCN2C(=O)[C@H]2CCCN2C(=O)[C@H](Cc2ccccc2)NC1=O [Peptide 5, c[Pro-Arg-Phe-DPhe-Asn-Ala-Phe-DPro]]",–,–,–,–,–,MC4R activity in words (mouse MC4R [4]): loss of agonist and antagonist activities; mMC1R percent maximal stimulatory response at 100 μM (mouse MC1R [5]): 50%
"C[C@@H]1NC(=O)[C@H](CC(N)=O)NC(=O)[C@H](Cc2ccccc2)NC(=O)[C@@H](Cc2ccccc2)NC(=O)[C@@H](CCCNC(=N)N)NC(=O)[C@@H]2CCCN2C(=O)[C@H]2CCCN2C(=O)[C@H](Cc2ccccc2)NC1=O [Peptide 6, c[Pro-DArg-DPhe-Phe-Asn-Ala-Phe-DPro]]",did not possess antagonist activity,0.5,–,No activity was observed,–,MC4R activity in words (mouse MC4R [4]): No activity was observed; mMC5R percent maximal stimulatory response at 100 μM (mouse MC5R [3]): 55%
"C[C@@H]1NC(=O)[C@H](CC(N)=O)NC(=O)[C@@H](Cc2ccccc2)NC(=O)[C@H](Cc2ccccc2)NC(=O)[C@@H](CCCNC(=N)N)NC(=O)[C@@H]2CCCN2C(=O)[C@H]2CCCN2C(=O)[C@H](Cc2ccccc2)NC1=O [Peptide 7, c[Pro-DArg-Phe-DPhe-Asn-Ala-Phe-DPro]]",did not possess antagonist activity,–,full agonist,–,–,mMC3R percent maximal stimulatory response at 100 μM (mouse MC3R [6]): 35%
"C[C@@H]1NC(=O)[C@H](CC(N)=O)NC(=O)[C@@H](Cc2ccccc2)NC(=O)[C@@H](Cc2ccccc2)NC(=O)[C@H](CCCNC(=N)N)NC(=O)[C@@H]2CCCN2C(=O)[C@H]2CCCN2C(=O)[C@H](Cc2ccccc2)NC1=O [Peptide 8, c[Pro-Arg-DPhe-DPhe-Asn-Ala-Phe-DPro]]",–,0.8,–,–,–,–
"C[C@@H]1NC(=O)[C@H](CC(N)=O)NC(=O)[C@@H](Cc2ccccc2)NC(=O)[C@@H](Cc2ccccc2)NC(=O)[C@@H](CCCNC(=N)N)NC(=O)[C@@H]2CCCN2C(=O)[C@H]2CCCN2C(=O)[C@H](Cc2ccccc2)NC1=O [Peptide 9, c[Pro-DArg-DPhe-DPhe-Asn-Ala-Phe-DPro]]",did not possess antagonist activity,1.3,–,No agonist or antagonist activity was observed,–,MC4R activity in words (mouse MC4R [4]): No agonist or antagonist activity was observed; mMC5R percent maximal stimulatory response at 100 μM (mouse MC5R [3]): 55%
"C[C@@H]1NC(=O)[C@H](CN)NC(=O)[C@H](Cc2ccccc2)NC(=O)[C@H](Cc2ccccc2)NC(=O)[C@@H](CCCNC(=N)N)NC(=O)[C@@H]2CCCN2C(=O)[C@H]2CCCN2C(=O)[C@H](Cc2ccccc2)NC1=O [Peptide 10, c[Pro-DArg-Phe-Phe-Dap-Ala-Phe-DPro]]",–,–,no activity was observed,–,2,EC50 (mouse MC5R [8]): > 100 µM; mMC3R percent maximal stimulatory response at 100 μM (mouse MC3R [6]): 25%; mMC1R percent maximal stimulatory response at 100 μM (mouse MC1R [5]): 25%
"C[C@@H]1NC(=O)[C@H](CN)NC(=O)[C@H](Cc2ccccc2)NC(=O)[C@@H](Cc2ccccc2)NC(=O)[C@H](CCCNC(=N)N)NC(=O)[C@@H]2CCCN2C(=O)[C@H]2CCCN2C(=O)[C@H](Cc2ccccc2)NC1=O [Peptide 11, c[Pro-Arg-DPhe-Phe-Dap-Ala-Phe-DPro]]",–,0.23 ± 0.08,No agonist activity was observed,No agonist activity was observed,1.2,"EC50 (mouse MC3R [9]): > 100 µM; EC50 (mouse MC5R [8]): > 100 µM; MC1R potency increase compared to the starting ligand 2 (mouse MC1R [5]; agonist potency relative to 2): > 1,000 fold"
"C[C@@H]1NC(=O)[C@H](CN)NC(=O)[C@@H](Cc2ccccc2)NC(=O)[C@H](Cc2ccccc2)NC(=O)[C@H](CCCNC(=N)N)NC(=O)[C@@H]2CCCN2C(=O)[C@H]2CCCN2C(=O)[C@H](Cc2ccccc2)NC1=O [Peptide 12, c[Pro-Arg-Phe-DPhe-Dap-Ala-Phe-DPro]]",–,0.8,No activity was observed,No activity was observed,> 3.16,EC50 (mouse MC3R [9]): > 100 µM; EC50 (mouse MC5R [8]): > 100 µM
"C[C@@H]1NC(=O)[C@H](CN)NC(=O)[C@H](Cc2ccccc2)NC(=O)[C@@H](Cc2ccccc2)NC(=O)[C@@H](CCCNC(=N)N)NC(=O)[C@@H]2CCCN2C(=O)[C@H]2CCCN2C(=O)[C@H](Cc2ccccc2)NC1=O [Peptide 13, c[Pro-DArg-DPhe-Phe-Dap-Ala-Phe-DPro]]",–,0.8,apparent inverse agonist activity,–,1,"EC50 (mouse MC3R [9]): > 100 µM; mMC5R inverse agonist, percent change from basal at 100 μM (mouse MC5R [3]): 30%"
